Values quoted from earlier work as cited in patent publication US20050255150A1 (priority 2004, published 2005).

Settings: in vivo

Row | SMILES | Intramuscular Administration equivalent of 10 mg of intramuscular morphine in 24 hours | Oral Administration equivalent of 10 mg morphine in 24 hours (po) | Oral Administration equivalent of 10 mg morphine in 24 hours (value in brackets) (po)
1 | CN1CC[C@]23c4c5ccc(O)c4O[C@H]2C(=O)CC[C@@]3(O)[C@H]1C5 [Oxymorphone] | 1 mg | 10 mg | 
2 | CCOC(=O)C1(c2ccccc2)CCN(C)CC1 [Meperidine] | 75 mg |  | 
3 | CN1CC[C@]23c4c5ccc(O)c4O[C@H]2[C@@H](O)C=C[C@H]3[C@H]1C5 [Morphine] | 10 mg | 60 (30 mg) | 60 (30 mg)
4 | COc1ccc2c3c1O[C@H]1[C@@H](O)C=C[C@H]4[C@@H](C2)N(C)CC[C@@]341 [Codeine] | 130 mg | 200 mg | 
5 | CCC(=O)C(CC(C)N(C)C)(c1ccccc1)c1ccccc1 (centres unmarked) [Methadone] | 10 mg | 20 mg | 
6 | CC(=O)Oc1ccc2c3c1O[C@H]1[C@@H](OC(C)=O)C=C[C@H]4[C@@H](C2)N(C)CC[C@@]341 [Heroin] | 5 mg | 60 mg | 
7 | COc1ccc2c3c1O[C@H]1C(=O)CC[C@@]4(O)[C@@H](C2)N(C)CC[C@]314 [Oxycodone] | 15 mg | 30 mg | 
